In brackets after ≈: the same amount, converted by molar mass.
How the values were obtained:
Type in all cases: functional, cell-based
[1] = Cytotoxicity against human KPL-4 cells assessed as inhibition of cell growth incubated for 3 days by CellTiter-Glo luminescent assay; settings: KPL4, 72 h
[2] = system: MOLT-4; assay: Cytotoxicity against human MOLT-4 cells assessed as inhibition of cell growth incubated for 72 hrs by XTT assay; settings: MOLT-4, 72 h
[3] = system: T47D; assay: Cytotoxicity against human T47D cells
[4] = system: MES-SA; assay: Cytotoxicity against human MES-SA cells assessed as inhibition of cell growth incubated for 72 hrs by CellTiter-Glo luminescent assay
[5] = system: LoVo; assay: Cytotoxicity against human LoVo cells assessed as inhibition of cell growth incubated for 72 hrs by Promega CellTiter-Glo assay

## C=C1C[C@H]2C=Nc3cc(OCCCCCOc4cc5c(cc4OC)C(=O)N4CC(=C)C[C@H]4C(O)N5C(=O)OCc4ccc(SSC(C)(C)C)cc4)c(OC)cc3C(=O)N2C1 (stereo not given in full)
[1]
  IC50: 6.3 ng/mL (≈ 7.35 nM)

## CCN(C(C)=O)[C@H]1CO[C@@H](O[C@H]2[C@H](O[C@H]3C#C/C=C\C#C[C@]4(O)CC(=O)C(NC(=O)OC)=C3/C4=C\CSC(C)=O)O[C@H](C)[C@@H](NO[C@H]3C[C@H](O)[C@H](SC(=O)c4c(C)c(I)c(O[C@@H]5O[C@@H](C)[C@H](O)[C@@H](OC)[C@H]5O)c(OC)c4OC)[C@@H](C)O3)[C@@H]2O)C[C@@H]1OC
[2]
  IC50: 0.00015 nM

## CC[C@H](C)[C@@H]1NC(=O)CNC(=O)[C@H]2CC(=O)[C@H]([C@@H](C)[C@@H](O)CO)NC(=O)[C@@H]3C[C@@H](O)CN3C(=O)[C@H](CC(=O)O)NC(=O)[C@H](C[S+]([O-])c3[nH]c4cc(O)ccc4c3C2)NC(=O)CNC1=O (stereo not given in full)
[3]
  IC50: ~500 nM

## COc1c2c(c(O)c3c4c(c(C)cc13)C1O[C@@]3(C(OC)OC)OC1[C@@](O[C@H]1C[C@@H](O)[C@@](O)(C(C)=O)[C@@H](C)O1)(O4)C31CO1)C(=O)[C@@H](C)C[C@@H]2O[C@H]1C[C@@](C)(O)[C@H](OC(C)=O)[C@@H](C)O1 (stereo not given in full)
[4]
  IC50: 0.74 nM

## CC(C)(C)[C@H](c1cc(-c2cc(F)ccc2F)cn1Cc1ccccc1)N(CCCN)C(=O)CO
[5]
  IC50: < 0.03 nM
